Laboratory results from ChEMBL document CHEMBL2417377, “Hit-to-lead optimization and kinase selectivity of imidazo[1,2-a]quinoxalin-4-amine derived JNK1 inhibitors” (Bioorg Med Chem Lett, 2013).
Each block holds one compound with its values, some of them ahead of it.

Legend:
Details in all cases: PC-3
[1] = target: T1, Serine/threonine-protein kinase tousled-like 1 (Homo sapiens) (UniProt Q9UKI8); assay: Inhibition of TLK1 in human PC3 cell lysates at 10 uM using desthiobiotin-tagged ATP probe AX9989 followed by trypsinization by LC/MS analysis
T1 sequence (whole entry): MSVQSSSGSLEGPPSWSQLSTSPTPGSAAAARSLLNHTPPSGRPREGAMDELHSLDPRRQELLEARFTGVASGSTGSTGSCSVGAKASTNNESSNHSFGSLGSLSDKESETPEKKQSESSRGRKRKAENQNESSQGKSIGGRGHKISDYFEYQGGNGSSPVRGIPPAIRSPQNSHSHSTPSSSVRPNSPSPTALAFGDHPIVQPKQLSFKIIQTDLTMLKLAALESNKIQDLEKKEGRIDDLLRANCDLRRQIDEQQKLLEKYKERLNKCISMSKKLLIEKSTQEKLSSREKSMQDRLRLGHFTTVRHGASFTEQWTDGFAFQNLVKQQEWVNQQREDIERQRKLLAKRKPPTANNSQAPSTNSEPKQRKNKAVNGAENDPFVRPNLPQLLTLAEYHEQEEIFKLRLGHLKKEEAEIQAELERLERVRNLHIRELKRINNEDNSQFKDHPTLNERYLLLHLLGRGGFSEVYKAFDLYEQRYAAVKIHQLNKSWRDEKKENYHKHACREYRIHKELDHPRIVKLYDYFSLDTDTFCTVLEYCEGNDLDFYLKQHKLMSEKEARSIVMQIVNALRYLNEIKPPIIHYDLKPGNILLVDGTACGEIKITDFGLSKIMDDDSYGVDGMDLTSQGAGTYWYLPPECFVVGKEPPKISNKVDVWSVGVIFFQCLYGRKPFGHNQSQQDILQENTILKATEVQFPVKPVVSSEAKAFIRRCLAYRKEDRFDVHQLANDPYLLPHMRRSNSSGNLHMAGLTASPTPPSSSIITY

[2] = target: T2, MAP/microtubule affinity-regulating kinase 4 (Homo sapiens) (UniProt Q96L34); assay: Inhibition of MARK4 in human PC3 cell lysates at 10 uM using desthiobiotin-tagged ATP probe AX9989 followed by trypsinization by LC/MS analysis
T2 sequence (whole entry): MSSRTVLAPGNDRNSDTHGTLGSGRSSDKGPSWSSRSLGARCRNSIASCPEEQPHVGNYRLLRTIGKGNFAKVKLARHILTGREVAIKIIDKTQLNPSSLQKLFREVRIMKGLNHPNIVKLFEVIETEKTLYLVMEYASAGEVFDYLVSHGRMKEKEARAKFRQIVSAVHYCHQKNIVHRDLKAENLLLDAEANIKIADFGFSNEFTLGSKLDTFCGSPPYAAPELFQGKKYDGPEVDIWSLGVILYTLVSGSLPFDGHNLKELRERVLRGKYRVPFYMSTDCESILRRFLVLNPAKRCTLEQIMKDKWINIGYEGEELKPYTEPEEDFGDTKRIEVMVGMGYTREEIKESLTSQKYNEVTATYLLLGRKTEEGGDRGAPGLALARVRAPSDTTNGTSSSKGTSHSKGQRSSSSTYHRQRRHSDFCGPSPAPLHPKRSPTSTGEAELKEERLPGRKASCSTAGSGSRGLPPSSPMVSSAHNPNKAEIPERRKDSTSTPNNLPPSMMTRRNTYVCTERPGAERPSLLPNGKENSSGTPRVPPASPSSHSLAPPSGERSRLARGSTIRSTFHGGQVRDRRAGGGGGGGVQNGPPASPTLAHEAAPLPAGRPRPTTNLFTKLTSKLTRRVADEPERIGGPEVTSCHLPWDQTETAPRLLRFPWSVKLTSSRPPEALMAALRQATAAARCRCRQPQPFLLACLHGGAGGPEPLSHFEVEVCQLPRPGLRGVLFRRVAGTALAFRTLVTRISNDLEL

[3] = target: Ribosomal protein S6 kinase beta-2 (Homo sapiens) (UniProt Q9UBS0); assay: Inhibition of p70S6Kbeta in human PC3 cell lysates at 10 uM using desthiobiotin-tagged ATP probe AX9989 followed by trypsinization by LC/MS analysis
Ribosomal protein S6 kinase beta-2 (Homo sapiens), sequence (Q9UBS0 whole entry): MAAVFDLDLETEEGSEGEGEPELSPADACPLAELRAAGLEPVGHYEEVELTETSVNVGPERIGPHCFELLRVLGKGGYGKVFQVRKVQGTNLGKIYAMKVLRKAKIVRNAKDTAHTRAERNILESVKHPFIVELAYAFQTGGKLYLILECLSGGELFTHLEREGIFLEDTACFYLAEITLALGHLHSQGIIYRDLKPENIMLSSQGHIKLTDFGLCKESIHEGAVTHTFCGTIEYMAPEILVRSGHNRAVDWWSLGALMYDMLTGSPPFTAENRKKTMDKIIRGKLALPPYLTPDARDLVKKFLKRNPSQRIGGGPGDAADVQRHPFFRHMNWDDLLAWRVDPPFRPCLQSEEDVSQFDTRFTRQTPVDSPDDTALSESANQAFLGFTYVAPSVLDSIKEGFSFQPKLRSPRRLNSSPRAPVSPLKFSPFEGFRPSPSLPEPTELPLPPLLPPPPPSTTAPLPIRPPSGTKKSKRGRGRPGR

[4] = target: T3, Mitogen-activated protein kinase kinase kinase 3 (Homo sapiens) (UniProt Q99759); assay: Inhibition of MAP3K3 in human PC3 cell lysates at 10 uM using desthiobiotin-tagged ATP probe AX9989 followed by trypsinization by LC/MS analysis
T3 sequence (whole entry): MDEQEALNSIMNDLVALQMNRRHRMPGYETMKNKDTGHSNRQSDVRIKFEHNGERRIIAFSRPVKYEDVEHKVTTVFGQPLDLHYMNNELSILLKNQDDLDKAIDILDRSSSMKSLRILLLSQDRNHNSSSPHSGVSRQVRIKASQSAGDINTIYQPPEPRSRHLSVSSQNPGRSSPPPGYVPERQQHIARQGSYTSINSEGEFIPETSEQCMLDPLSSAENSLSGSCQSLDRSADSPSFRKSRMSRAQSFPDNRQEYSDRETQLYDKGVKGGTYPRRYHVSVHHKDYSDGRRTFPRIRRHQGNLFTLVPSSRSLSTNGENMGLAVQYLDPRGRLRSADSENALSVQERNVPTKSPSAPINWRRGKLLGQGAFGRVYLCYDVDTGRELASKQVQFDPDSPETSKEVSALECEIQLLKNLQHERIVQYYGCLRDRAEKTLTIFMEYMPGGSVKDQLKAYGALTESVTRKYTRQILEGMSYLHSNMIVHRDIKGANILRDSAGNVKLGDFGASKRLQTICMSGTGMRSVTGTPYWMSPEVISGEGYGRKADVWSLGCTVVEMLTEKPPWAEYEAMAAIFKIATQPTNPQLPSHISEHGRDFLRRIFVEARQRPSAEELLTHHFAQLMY

[5] = target: Serine/threonine-protein kinase Nek7 (Homo sapiens) (UniProt Q8TDX7); assay: Inhibition of NEK7 in human PC3 cell lysates at 10 uM using desthiobiotin-tagged ATP probe AX9989 followed by trypsinization by LC/MS analysis
Serine/threonine-protein kinase Nek7 (Homo sapiens), sequence (Q8TDX7 whole entry, looked up): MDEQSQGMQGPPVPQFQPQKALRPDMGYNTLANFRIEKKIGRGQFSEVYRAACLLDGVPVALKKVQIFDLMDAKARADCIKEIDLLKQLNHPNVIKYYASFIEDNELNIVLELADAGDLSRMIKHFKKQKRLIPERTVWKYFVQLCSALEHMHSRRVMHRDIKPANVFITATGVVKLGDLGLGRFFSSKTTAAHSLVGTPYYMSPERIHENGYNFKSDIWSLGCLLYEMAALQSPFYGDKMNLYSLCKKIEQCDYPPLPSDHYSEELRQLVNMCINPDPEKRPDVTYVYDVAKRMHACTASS

[6] = target: p38 delta/gamma (Homo sapiens) (UniProt O15264+P53778); assay: Inhibition of p38delta/gamma in human PC3 cell lysates at 10 uM using desthiobiotin-tagged ATP probe AX9989 followed by trypsinization by LC/MS analysis; assay type: protein assay

inhibition [1]: < 35%
inhibition [2]: < 35%
inhibition [3]: < 35%
inhibition [4]: < 35%
inhibition [5]: < 35%
inhibition [6]: < 35%
Compound: O=C(NC1(c2ccc(F)cc2)CC1)c1ccc2nc(N[C@H]3CC[C@H](O)CC3)c3nccn3c2c1

inhibition [1]: < 35%
inhibition [2]: < 35%
inhibition [3]: < 35%
inhibition [4]: < 35%
inhibition [5]: < 35%
inhibition [6]: < 35%
Compound: O=C(NC1(Cc2ccc(F)cc2)CC1)c1ccc2nc(N[C@H]3CC[C@H](O)CC3)c3nccn3c2c1

inhibition [1]: < 35%
inhibition [2]: < 35%
inhibition [3]: < 35%
inhibition [4]: < 35%
inhibition [5]: < 35%
inhibition [6]: < 35%
Compound: CC[C@@H](NC(=O)c1ccc2nc(N[C@H]3CC[C@H](O)CC3)c3nccn3c2c1)c1ccccc1

inhibition [1]: < 35%
inhibition [2]: < 35%
inhibition [3]: < 35%
inhibition [4]: < 35%
inhibition [5]: < 35%
inhibition [6]: 44.4%
Compound: NC(=O)c1ccc2nc(N[C@H]3CC[C@H](O)CC3)c3nccn3c2c1

inhibition [1]: < 35%
inhibition [2]: < 35%
inhibition [3]: < 35%
inhibition [4]: < 35%
inhibition [5]: < 35%
inhibition [6]: < 35%
Compound: CC(C)(NC(=O)c1ccc2nc(N[C@H]3CC[C@H](O)CC3)c3nccn3c2c1)c1ccccc1

inhibition [1]: < 35%
inhibition [2]: < 35%
inhibition [3]: < 35%
inhibition [4]: < 35%
inhibition [5]: < 35%
inhibition [6]: < 35%
Compound: O=C(NC1(c2ccccc2)CCC1)c1ccc2nc(N[C@H]3CC[C@H](O)CC3)c3nccn3c2c1

Further lines, the compound ahead of its results:

Compound: O=C(NC1(c2ccccc2)CC1)c1ccc2nc(N[C@H]3CC[C@H](O)CC3)c3nccn3c2c1
inhibition [1]: < 35%
inhibition [2]: < 35%
inhibition [3]: < 35%
inhibition [4]: < 35%
inhibition [5]: < 35%
inhibition [6]: < 35%

Compound: C[C@@H](NC(=O)c1ccc2nc(N[C@H]3CC[C@H](O)CC3)c3nccn3c2c1)c1ccccc1
inhibition [1]: < 35%
inhibition [2]: < 35%
inhibition [3]: < 35%
inhibition [4]: < 35%
inhibition [5]: < 35%
inhibition [6]: < 35%

Compound: O=C(O)c1ccc2nc(N[C@H]3CC[C@H](O)CC3)c3nccn3c2c1
inhibition [1]: < 35%
inhibition [2]: < 35%
inhibition [3]: < 35%
inhibition [4]: < 35%
inhibition [5]: < 35%
inhibition [6]: 57.7%

Compound: CCC[C@@H](NC(=O)c1ccc2nc(N[C@H]3CC[C@H](O)CC3)c3nccn3c2c1)c1ccccc1
inhibition [1]: < 35%
inhibition [2]: < 35%
inhibition [3]: < 35%
inhibition [4]: < 35%
inhibition [5]: < 35%
inhibition [6]: < 35%

Compound: O=C(N[C@H](CO)c1ccccc1)c1ccc2nc(N[C@H]3CC[C@H](O)CC3)c3nccn3c2c1
inhibition [1]: < 35%
inhibition [2]: < 35%
inhibition [3]: < 35%
inhibition [4]: < 35%
inhibition [5]: < 35%
inhibition [6]: < 35%

Compound: C[C@H](NC(=O)c1ccc2nc(N[C@H]3CC[C@H](O)CC3)c3nccn3c2c1)c1ccccc1
inhibition [1]: < 35%
inhibition [2]: < 35%
inhibition [3]: < 35%
inhibition [4]: < 35%
inhibition [5]: < 35%
inhibition [6]: < 35%
